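Here, GI50 denotes the concentration required for 50% inhibition of growth. At the TGI there is no net growth.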
Columns and labels:
Assay in all cases: growth of human tumour cells (NCI), 384-well format
MDA-MB-231 breast = system: MDA-MB-231 breast
EKVX NSCLC = system: EKVX NSCLC
SF-539 CNS = system: SF-539 CNS
IGROV1 ovarian = system: IGROV1 ovarian
TK-10 renal = system: TK-10 renal
KM12 colon = system: KM12 colon
NCI-H226 lung = system: NCI-H226 lung
HOP-62 NSCLC = system: HOP-62 NSCLC
SNB-75 CNS = system: SNB-75 CNS
NCI/ADR-RES ovarian = system: NCI/ADR-RES ovarian
SF-295 CNS = system: SF-295 CNS
MCF7 breast = system: MCF7 breast
OVCAR-4 ovarian = system: OVCAR-4 ovarian
UACC-257 melanoma = system: UACC-257 melanoma
T-47D breast = system: T-47D breast
A498 renal = system: A498 renal
SNB-19 CNS = system: SNB-19 CNS
HCT-15 colon = system: HCT-15 colon
UACC-62 melanoma = system: UACC-62 melanoma
SW-620 colon = system: SW-620 colon
HS 578T breast = system: HS 578T breast
MDA-MB-468 breast = system: MDA-MB-468 breast
OVCAR-8 ovarian = system: OVCAR-8 ovarian
PC-3 prostate = system: PC-3 prostate
U251 glioblastoma = system: U251 glioblastoma
OVCAR-5 ovarian = system: OVCAR-5 ovarian
HT29 colon = system: HT29 colon
HL-60(TB) leukemia = system: HL-60(TB) leukemia
NCI-H322M lung = system: NCI-H322M lung
NCI-H23 lung = system: NCI-H23 lung
DU-145 prostate = system: DU-145 prostate
CCRF-CEM leukemia = system: CCRF-CEM leukemia
A549 NSCLC = system: A549 NSCLC
M14 melanoma = system: M14 melanoma
RXF 393 renal = system: RXF 393 renal
786-0 renal = system: 786-0 renal
SK-MEL-2 melanoma = system: SK-MEL-2 melanoma
HOP-92 NSCLC = system: HOP-92 NSCLC
SK-MEL-28 melanoma = system: SK-MEL-28 melanoma
BT-549 breast = system: BT-549 breast
K-562 leukemia = system: K-562 leukemia
RPMI-8226 leukemia = system: RPMI-8226 leukemia
SK-OV-3 ovarian = system: SK-OV-3 ovarian
MOLT-4 leukemia = system: MOLT-4 leukemia
OVCAR-3 ovarian = system: OVCAR-3 ovarian
MDA-MB-435 melanoma = system: MDA-MB-435 melanoma
HCT-116 colon = system: HCT-116 colon
LOX IMVI melanoma = system: LOX IMVI melanoma
SN12C renal = system: SN12C renal
MALME-3M melanoma = system: MALME-3M melanoma
SF-268 CNS = system: SF-268 CNS
CAKI-1 renal = system: CAKI-1 renal
NCI-H522 lung = system: NCI-H522 lung
UO-31 renal = system: UO-31 renal
ACHN renal = system: ACHN renal

## O=C1CCC(N2C(=O)c3ccccc3C2=O)C(=O)N1 (stereo not given)
MDA-MB-231 breast
  GI50: > 100 µM
  TGI: > 100 µM
EKVX NSCLC
  GI50: > 100 µM
  TGI: > 100 µM
SF-539 CNS
  GI50: > 100 µM
  TGI: > 100 µM
IGROV1 ovarian
  GI50: > 100 µM
  TGI: > 100 µM
TK-10 renal
  GI50: > 100 µM
  TGI: > 100 µM
KM12 colon
  GI50: > 100 µM
  TGI: > 100 µM
NCI-H226 lung
  GI50: > 100 µM
  TGI: > 100 µM
HOP-62 NSCLC
  GI50: > 100 µM
  TGI: > 100 µM
SNB-75 CNS
  GI50: > 100 µM
  TGI: > 100 µM
NCI/ADR-RES ovarian
  GI50: > 100 µM
  TGI: > 100 µM
SF-295 CNS
  GI50: > 100 µM
  TGI: > 100 µM
MCF7 breast
  GI50: > 100 µM
  TGI: > 100 µM
OVCAR-4 ovarian
  GI50: > 100 µM
  TGI: > 100 µM
UACC-257 melanoma
  GI50: > 100 µM
  TGI: > 100 µM
T-47D breast
  GI50: > 100 µM
  TGI: > 100 µM
A498 renal
  GI50: > 100 µM
  TGI: > 100 µM
SNB-19 CNS
  GI50: > 100 µM
  TGI: > 100 µM
HCT-15 colon
  GI50: > 100 µM
  TGI: > 100 µM
UACC-62 melanoma
  GI50: > 100 µM
  TGI: > 100 µM
SW-620 colon
  GI50: > 100 µM
  TGI: > 100 µM
HS 578T breast
  GI50: > 100 µM
  TGI: > 100 µM
MDA-MB-468 breast
  GI50: > 100 µM
  TGI: > 100 µM
OVCAR-8 ovarian
  GI50: > 100 µM
  TGI: > 100 µM
PC-3 prostate
  GI50: > 100 µM
  TGI: > 100 µM
U251 glioblastoma
  GI50: > 100 µM
  TGI: > 100 µM
OVCAR-5 ovarian
  GI50: > 100 µM
  TGI: > 100 µM
HT29 colon
  GI50: > 100 µM
  TGI: > 100 µM
HL-60(TB) leukemia
  GI50: > 100 µM
  TGI: > 100 µM
NCI-H322M lung
  GI50: > 100 µM
  TGI: > 100 µM
NCI-H23 lung
  GI50: > 100 µM
  TGI: > 100 µM
DU-145 prostate
  GI50: > 100 µM
  TGI: > 100 µM
CCRF-CEM leukemia
  GI50: > 100 µM
  TGI: > 100 µM
A549 NSCLC
  GI50: > 100 µM
  TGI: > 100 µM
M14 melanoma
  GI50: > 100 µM
  TGI: > 100 µM
RXF 393 renal
  GI50: > 100 µM
  TGI: > 100 µM
786-0 renal
  GI50: > 100 µM
  TGI: > 100 µM
SK-MEL-2 melanoma
  GI50: > 100 µM
  TGI: > 100 µM
HOP-92 NSCLC
  GI50: > 100 µM
  TGI: > 100 µM
SK-MEL-28 melanoma
  GI50: > 100 µM
  TGI: > 100 µM
BT-549 breast
  GI50: > 100 µM
  TGI: > 100 µM
K-562 leukemia
  GI50: > 100 µM
  TGI: > 100 µM
RPMI-8226 leukemia
  GI50: > 100 µM
  TGI: > 100 µM
SK-OV-3 ovarian
  GI50: > 100 µM
  TGI: > 100 µM
MOLT-4 leukemia
  GI50: > 100 µM
  TGI: > 100 µM
OVCAR-3 ovarian
  GI50: > 100 µM
  TGI: > 100 µM
MDA-MB-435 melanoma
  GI50: > 100 µM
  TGI: > 100 µM
HCT-116 colon
  GI50: > 100 µM
  TGI: > 100 µM
LOX IMVI melanoma
  GI50: > 100 µM
  TGI: > 100 µM
SN12C renal
  GI50: > 100 µM
  TGI: > 100 µM
MALME-3M melanoma
  GI50: > 100 µM
  TGI: > 100 µM
SF-268 CNS
  GI50: > 100 µM
  TGI: > 100 µM
CAKI-1 renal
  GI50: > 100 µM
  TGI: > 100 µM
NCI-H522 lung
  GI50: > 100 µM
  TGI: > 100 µM
UO-31 renal
  GI50: > 100 µM
  TGI: > 100 µM
ACHN renal
  GI50: > 100 µM
  TGI: > 100 µM

Source: PubChem BioAssay (NCI)
